Data on seven compounds can be found in patent EP0326134A1, “4-Amino-2,3-disubstituted-6,7-dihydro-5H-1-pyridine derivatives, process for their preparation and medicaments containing them” (NAUCHNO-ISSLEDOVATELSKY INSTITUT TEKHNOLOGII I BEZOPASNOSTI …, priority 1988, dated 1989).

The nature of data set [1]: Acute toxicity, single intraperitoneal injection, probit analysis (LD50). The format is in vivo, Mäusen. Particulars: mouse, in vivo, ip, mice, i.p., read-out: LD50. An excerpt:
Ihre akute Toxizität wurde an Mäusen (einmalige intraperitoneale Injektion) nach der Methode der Probit-Analyse nach Zichtfield, Wilcoxon, t949 untersucht. In Tabelle 2 sind die Parameter der akuten Toxizität (LDso) angegeben, die eine mäßige Toxizität der erfindungsgemäßen Verbindungen belegen.

Data set [2] in a line: Side effects and CNS/behaviour: tremor (TD50), sedative and m-cholinomimetic effects. The format is in vivo. Particulars: in vivo; for selectivity ratio: ED50 = dose blocking the effect of Skopolamin in 50 % of the animals (passive avoidance, mice), read-out: Verhältnis TD50 zu ED50; for TD50: toxic dose causing tremor in 50 % of the animals. An excerpt: Von Interesse ist der Einfluß der erfindungsgemäßen Verbindungen auf das ZNS und das Verhalten der Tiere.

The next data set has as its system Samenleiter der Ratte. Kind of data set: Contractile activity of smooth muscle: rat vas deferens. Particulars: Rattus norvegicus, Samenleiter der Ratte, n = 9, read-out: Adrenalin 1.10^-6: Amplitude, % bezogen auf d.Kontrolle; for activity at 100 µM: Konzentration 1.10^-4 Mol; for activity at 10 µM: Konzentration 1.10^-5 Mol. An excerpt:
(§1) In Versuchen an glattmpskulären Organen (Uterus, Samenleiter der Ratte und Krummdarm des Meerschweinchens) wurden die Wirkung der erfindungsgemäßen Verbindungen auf die kontraktile Aktivität der glatten Muskeln und ihre Reaktionen auf den Einfluß von Acetylcholin, Serotonin, Adrenalin und KCI als Agonisten untersucht. Mit Hilfe eines Schreibers wurden die Amplitude und die Dauer der Kontraktion der glatten Muskeln unter Verwendung eines Geräts vom Typ Mechanstron-untersucht.

In another data set the test system is Uterus der Ratte. Kind of data set: Contractile activity of smooth muscle: rat uterus. The conditions noted are these: n = 9; for activity at 100 µM / activity at 10 µM: Rattus norvegicus; for activity at 100 µM: Konzentration 1.10^-4 Mol.
Source text: as §1

In data set [3] the test system is Na -Durchlässigkeit der Membrane des Ranvier-Schnürringes. Nature of the data set: Na+ permeability of the node of Ranvier membrane, voltage clamp. Also on record: species or system Frosches. Particulars: node of Ranvier, frog sciatic nerve fibres, voltage clamp; concentration giving 50 % block of ion permeability; read-out: Blockierung der Na^+-Durchlässigkeit der Membrane Ic50 (Mol). An excerpt: (§2) Untersucht wurden die Wirkmechanismen der erfindungsgemäßen Verbindungen: • 1. Die Wirkung auf Acetylcholinesterase menschlicher Erythrozyten auf spektrofotometrischem Wege. • 2. Die Wirkung auf die K - und Na -Durchlässigkeit der Membrane des Ranvier-Schnürringes (s. Fox T.M. et al. "Modification of ionic membrane currrents of Ranvier nodes by UV-radiation under voltage clamp conditions", Experientia, 27, 1289-1290 /1971/ und Arhom P. et al. "Local anesthetics: effects on permeability properties of nodal membrane in myelynated nerve fibres from xenopus". Acta physiol. Scand. 91, 11-21 /1974/) der Nervenfasern des Hüftnervs des Frosches unter Anwendung der Methode der Messung der Membranspannung (Voltage-clampmethode) (s. Derksen H.E. "Axon membrane voltage fluctuations", Acta Physiol., Pharmacol Neer, 13, 373-466 /1965/).
(§3) Alle erfindungsgemäßen Verbindungen sind Blocker für die K^+-Durchlässigkeit der Membrane analog dem Amyridin. Die Salze der bicyclischen Basen blockieren jedoch stärker die Na -Durchlässigkeit der Membrane, was sich mit ihren sedativen und analgetischen Eigenschaften in Verbindung bringen läßt.

Data set [4] relates to K -Durchlässigkeit der Membrane des Ranvier-Schnürringes. Nature of the data set: K+ permeability of the node of Ranvier membrane, voltage clamp. On the set-up: species or system Frosches. Particulars: node of Ranvier, frog sciatic nerve fibres, voltage clamp; concentration giving 50 % block of ion permeability; read-out: Blockierung der K^+-Durchlässigkeit der Membrane Ic50 (Mol).
Source text: as §2, §3

The subject of data set [5] is durch Skopolamin hervorgerufene Amnesie. Nature of the data set: Dark avoidance assay (passive avoidance), scopolamine-induced amnesia. The format is in vivo, Mäusen. Particulars: for antiamnestische Wirkung: in words, compared with Amyridin; for Einfluß auf das Gedächtnis: Zahl der Tiere in %, bei denen die Skopolaminwirkung aufgehoben wurde: mice, compound s.c. 5 min before learning, Skopolamin i.p. 30 min before.

In data set [6] the target is T1, Acetylcholinesterase menschlicher Erythrozyten (Homo sapiens, UniProt P22303).
T1 construct: Acetylcholin-esteraseinhi-bierung bei menschlichen Erythrozyten; from tissue; host or cells: human erythrocytes
T1 sequence (P22303 other isoform, or with tags, fused parts or gaps): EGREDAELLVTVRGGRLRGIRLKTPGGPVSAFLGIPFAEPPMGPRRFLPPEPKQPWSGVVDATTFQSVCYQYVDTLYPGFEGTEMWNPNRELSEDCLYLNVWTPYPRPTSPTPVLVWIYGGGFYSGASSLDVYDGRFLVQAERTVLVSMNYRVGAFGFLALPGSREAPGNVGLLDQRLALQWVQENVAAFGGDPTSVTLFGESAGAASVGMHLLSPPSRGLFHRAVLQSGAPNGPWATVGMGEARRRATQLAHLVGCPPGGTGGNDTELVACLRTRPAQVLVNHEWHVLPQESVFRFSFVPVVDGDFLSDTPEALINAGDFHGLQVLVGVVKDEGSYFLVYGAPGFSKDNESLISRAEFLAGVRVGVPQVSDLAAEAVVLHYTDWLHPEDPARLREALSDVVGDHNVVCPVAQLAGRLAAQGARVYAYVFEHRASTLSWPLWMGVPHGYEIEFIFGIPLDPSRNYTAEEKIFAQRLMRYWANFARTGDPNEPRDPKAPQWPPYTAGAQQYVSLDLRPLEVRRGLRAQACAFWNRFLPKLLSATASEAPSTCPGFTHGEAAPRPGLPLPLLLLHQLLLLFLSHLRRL
Kind of data set: Acetylcholinesterase inhibition, spectrophotometric. In kind it is biochemical. The conditions noted are these: Acetylcholinesteraseinhibierung bei menschlichen Erythrozyten IK, (Mol), human erythrocyte enzyme. An excerpt:
Untersucht wurden die Wirkmechanismen der erfindungsgemäßen Verbindungen: • 1. Die Wirkung auf Acetylcholinesterase menschlicher Erythrozyten auf spektrofotometrischem Wege. • 2.

In data set [7] the test system is Nerven-Muskel-Präparat von Mäusen (n.peroneus-m.extensor digitorum longus). Kind of data set: Neuromuscular transmission in isolated nerve-muscle preparation (EPP, minEPP). The conditions noted are these: for Stimulierung der Nerven-Muskelübertragung, in % der Amplitude: EPP: EPP = Endplattenpotential. The essentials: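 Mouse peroneal nerve–extensor digitorum longus preparation, isolated and perfused with O2/CO2-gassed Lilly solution. EPPs and spontaneous minEPPs were recorded by magnetograph, then analysed by computer for frequency, amplitude and duration.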

Setting [8] is: Uterus der Ratte, read-out: Serotonin 1.10^-6 (Mol): Amplitude, % bezogen auf die Kontrolle.
The mark [9] stands for this setting: Uterus der Ratte (as head prints), Konzentration 1.10^-5 Mol, ditto mark -"- repeats unverändert, read-out: Acetylcholin 1.10^-6 (Mol): Amplidude, % bezogen auf d. Kontrolle.

Each structure is given as a SMILES string. Structures can show the parent of a compound that is named as a salt. Where two headings read alike, the source gives them in different places.

For the compound `CCc1c(C)nc2c(c1N)CCC2` [Verbindung 21, 2-Methyl-3-ethyl-4-amino-6,7-dihydro-5H-1-pyrindinhydrat], the LD50 in [1] came to 30 mg/kg. Also, in [2], the selectivity ratio turned out to be 3.8 and the TD50 is 10 mg/kg. Further, the activity at 100 µM in the data set with Samenleiter der Ratte came to 115%. Besides, the activity at 100 µM in the data set with Uterus der Ratte (setting [8]) was determined as 118%. In addition, the IC50 in data set [3] stood at 3200 µM. Also, the IC50 in [4] was 3500 µM. Also, in data set [5], the “antiamnestische Wirkung” value is on record as “antiamnestische Wirkung, welche die von Amyridin etwas übertraf” and the “Einfluß auf das Gedächtnis: Zahl der Tiere in %, bei denen die Skopolaminwirkung aufgehoben wurde” value is recorded as 68%. In addition, the affinity in data set [6] corresponds to a Ki of 7 µM. For the same compound, in data set [7], the “Stimulierung der Nerven-Muskelübertragung, in % der Amplitude: EPP” value was found to be 25% and the “Stimulierung der Nerven-Muskelübertragung, in % der Amplitude: minEPP” value worked out at 58%.
Take `CNc1c(C)c(C)nc2c1CCC2` [Verbindung 19, 2,3-Dimethy)-4-methy)amino-6,7-dihydro-5H-1-pyrindinhydrat]: the LD50 in [1] is 16 mg/kg. Also, in data set [2], the selectivity ratio came to 4 and the TD50 worked out at 12 mg/kg. Besides, the activity at 100 µM with Samenleiter der Ratte amounted to 115%. Besides, the activity at 100 µM in the data set with Uterus der Ratte (setting [8]) stood at 120%. For the same compound, the IC50 in data set [3] worked out at 2500 µM. The IC50 in data set [4] was 1800 µM. In addition, in [5], the “antiamnestische Wirkung” value is recorded as “antiamnestische Wirkung, welche die von Amyridin etwas übertraf” and the “Einfluß auf das Gedächtnis: Zahl der Tiere in %, bei denen die Skopolaminwirkung aufgehoben wurde” value is given as 70%. Also, the Ki in data set [6] was 6.7 µM. Further, in [7], the “Stimulierung der Nerven-Muskelübertragung, in % der Amplitude: EPP” value was found to be 28% and the “Stimulierung der Nerven-Muskelübertragung, in % der Amplitude: minEPP” value is reported as 56%.
Turning to `CCc1nc2c(c(N)c1C)CCC2` [Verbindung 27, 2-Ethyl-3-methyl-4-amino-6,7-dihydro-5H-1-pyrindinhydrat], in data set [1], the LD50 turned out to be 30 mg/kg. Further, in data set [2], the selectivity ratio is 10 and the TD50 is 19 mg/kg. Further, the activity at 100 µM in the data set with Samenleiter der Ratte was found to be 126%. The activity at 100 µM in the data set with Uterus der Ratte (setting [8]) came out at 125%. Also, the IC50 in data set [3] worked out at 380 µM. Besides, the IC50 in data set [4] turned out to be 150 µM. Besides, in data set [5], the “antiamnestische Wirkung” value is on record as “antiamnestische Wirkung, welche die von Amyridin etwas übertraf” and the “Einfluß auf das Gedächtnis: Zahl der Tiere in %, bei denen die Skopolaminwirkung aufgehoben wurde” value worked out at 60%. The compound further had a Ki in data set [6] of 3.8 µM. Further, in [7], the “Stimulierung der Nerven-Muskelübertragung, in % der Amplitude: EPP” value stood at 23% and the “Stimulierung der Nerven-Muskelübertragung, in % der Amplitude: minEPP” value came out at 45%.
Consider `Nc1c2c(nc3c1CCC3)CCC2` [Verbindung 36, 8-Amino-1,2,3,5,6,7-hexahydro-1-cyclopenta[b]pyrindin-hydrochlorid], for which the LD50 in data set [1] is 36 mg/kg. In addition, in [2], the selectivity ratio amounted to 7.5 and the TD50 was determined as 15 mg/kg. In addition, the activity at 10 µM with Samenleiter der Ratte turned out to be 160%. The activity at 10 µM in the data set with Uterus der Ratte (setting [9]) was 140%. Besides, in [3], the IC50 stood at 5200 µM. Also, the IC50 in data set [4] is 420 µM. Further, in data set [5], the “Einfluß auf das Gedächtnis: Zahl der Tiere in %, bei denen die Skopolaminwirkung aufgehoben wurde” value was 65%. The Ki in data set [6] turned out to be 0.11 µM. For the same compound, in data set [7], the “Stimulierung der Nerven-Muskelübertragung, in % der Amplitude: EPP” value turned out to be 20% and the “Stimulierung der Nerven-Muskelübertragung, in % der Amplitude: minEPP” value stood at 60%.
`CCCc1c(C)nc2c(c1N)CCC2` [Verbindung 24]: the LD50 in [1] stood at 30 mg/kg. The selectivity ratio in data set [2] amounted to 3. The compound also registered a TD50 in [2] of 10 mg/kg. Besides, the activity at 100 µM is 120% with Samenleiter der Ratte and 119% in the data set on Uterus der Ratte (setting [8]). Besides, the IC50 in data set [3] is 4200 µM; in data set [4], 4000 µM. The “Einfluß auf das Gedächtnis: Zahl der Tiere in %, bei denen die Skopolaminwirkung aufgehoben wurde” value in data set [5] turned out to be 68%. Further, in data set [6], the Ki was 7.5 µM. In addition, in data set [7], the “Stimulierung der Nerven-Muskelübertragung, in % der Amplitude: EPP” value was found to be 25%. In [7], the “Stimulierung der Nerven-Muskelübertragung, in % der Amplitude: minEPP” value worked out at 54%.
In the case of `Nc1c2c(nc3c1CCC3)CCCCC2` [Verbindung 38], the LD50 in data set [1] came to 49 mg/kg. Also, in data set [2], the selectivity ratio worked out at 7.6. Further, the TD50 in data set [2] turned out to be 17 mg/kg. Further, the activity at 10 µM turned out to be 145% in the data set on Samenleiter der Ratte; 125% in the data set on Uterus der Ratte (setting [9]); 180% in the data set with Uterus der Ratte (Uterus der Ratte, Konzentration 1.10^-5 Mol, read-out: Serotonin 1.10^-6 (Mol): Amplitude, % bezogen auf die Kontrolle). The “Acetylcholin 1.10^-6 (Mol): Dauer, Min.” value in the data set with Uterus der Ratte (Uterus der Ratte (as head prints), Konzentration 1.10^-5 Mol) is given as 20±0.6 Min. Further, the “Serotonin 1.10^-6 (Mol): Dauer, Min.” value with Uterus der Ratte (Uterus der Ratte, Konzentration 1.10^-5 Mol) is listed as 25±0.8 Min. In addition, the results for the IC50 in data set [3] and in data set [4] were 4500 µM and 580 µM, respectively. Also, in data set [5], the “Einfluß auf das Gedächtnis: Zahl der Tiere in %, bei denen die Skopolaminwirkung aufgehoben wurde” value is 70%. Moreover, the Ki in data set [6] turned out to be 0.48 µM. Besides, the “Stimulierung der Nerven-Muskelübertragung, in % der Amplitude: EPP” value in data set [7] stood at 28%. Moreover, the “Stimulierung der Nerven-Muskelübertragung, in % der Amplitude: minEPP” value in [7] was found to be 52%.
For the compound `CCNc1c(C)c(C)nc2c1CCC2` [Verbindung 20, 2,3-Dimethyl-4-ethylamino-6,7-dihydro-5H-1-pyrindin], in [1], the LD50 was 18 mg/kg. Moreover, in data set [2], the selectivity ratio is 3.8 and the TD50 amounted to 10 mg/kg. The activity at 100 µM in the data set with Samenleiter der Ratte is 120%. Moreover, the activity at 100 µM in the data set on Uterus der Ratte (setting [8]) came out at 125%. For the same compound, in data set [3], the IC50 is 2800 µM. For the same compound, the IC50 in data set [4] was determined as 2200 µM. Also, in data set [5], the “antiamnestische Wirkung” value was “antiamnestische Wirkung, welche die von Amyridin etwas übertraf” and the “Einfluß auf das Gedächtnis: Zahl der Tiere in %, bei denen die Skopolaminwirkung aufgehoben wurde” value is on record as 65%. In [6], the Ki is 7 µM. In [7], the “Stimulierung der Nerven-Muskelübertragung, in % der Amplitude: EPP” value is 30% and the “Stimulierung der Nerven-Muskelübertragung, in % der Amplitude: minEPP” value turned out to be 58%.
